Structures can show the parent of a compound that is named as a salt. Where two headings read alike, the source gives them in different places.
Columns and labels:
[1] = target: neuronal nicotinic acetylcholine receptors; assay: [3H]-cytisine ligand-receptor binding assay (crude synaptic membranes from whole rat brain); conditions: for Ki: Table 1, [3H]-cytisine 1.25 nM, 4° C., 60 min, Ki by Cheng and Prusoff, read-out: [^3 H]-Cyt Binding; for binding to the nicotinic acetylcholine receptor (in words): preferred compounds
Method: For the purpose of identifying compounds as nicotinic acetylcholinergic agents which are capable of interacting with neuronal nicotinic acetylcholine receptors in the brain, a ligand-receptor binding assay was carried out as the initial screen. Compounds of the present invention were effective at interacting with neuronal nicotinic acetylcholine receptors as assayed for their ability to displace radioligand from neuronal nicotinic acetylcholine receptors labeled with [^3 H]-cytisine ([^3 H]-CYT).
A. Protocol For Determination of Nicotinic Acetylcholine Receptor Binding Potencies of Ligands
Binding of [^3 H]-CYT to nicotinic acetylcholine receptors was accomplished using crude synaptic membrane preparations from whole rat brain (Pabreza et al., Molecular Pharmacol., 1990, 39:9). Washed membranes were stored at -80° C. prior to use. Frozen aliquots were slowly thawed and resuspended in 20 volumes of buffer (containing: 120 mM NaCl, 5 mM KCl, 2 mM MgCl2, 2 mM CaCl2 and 50 mM Tris-Cl, pH 7.4 @4° C.). After centrifuging at 20,000×g for 15 minutes, the pellets were resuspended in 30 volumes of buffer. Homogenate (containing 125-150 μg protein) was added to triplicate tubes containing concentrations of test compound and [^3 H]-CYT (1.25 nM) in a final volume of 500 μL. Samples were incubated for 60 minutes at 4° C., then rapidly filtered through Whatman GF/B filters presoaked in 0.5% polyethylimine using 3×4 mL of ice-cold buffer. The filters were counted in 4 mL of Ecolume® (ICN). Nonspecific binding was determined in the presence of 10 μM (-)-nicotine and values were expressed as a percentage of total binding.

[2] = target: T1, α4 and β2 nicotinic acetylcholine subunits (K177 cells) (Homo sapiens, UniProt P17787+P43681); assay: 86Rb+ efflux assay in K177 cells (HEK 293 stably transfected with α4 and β2 nicotinic acetylcholine subunits); type: cell-based
T1 construct: expressed in transfected cells
T1 sequence (P43681 29-627 limits assumed): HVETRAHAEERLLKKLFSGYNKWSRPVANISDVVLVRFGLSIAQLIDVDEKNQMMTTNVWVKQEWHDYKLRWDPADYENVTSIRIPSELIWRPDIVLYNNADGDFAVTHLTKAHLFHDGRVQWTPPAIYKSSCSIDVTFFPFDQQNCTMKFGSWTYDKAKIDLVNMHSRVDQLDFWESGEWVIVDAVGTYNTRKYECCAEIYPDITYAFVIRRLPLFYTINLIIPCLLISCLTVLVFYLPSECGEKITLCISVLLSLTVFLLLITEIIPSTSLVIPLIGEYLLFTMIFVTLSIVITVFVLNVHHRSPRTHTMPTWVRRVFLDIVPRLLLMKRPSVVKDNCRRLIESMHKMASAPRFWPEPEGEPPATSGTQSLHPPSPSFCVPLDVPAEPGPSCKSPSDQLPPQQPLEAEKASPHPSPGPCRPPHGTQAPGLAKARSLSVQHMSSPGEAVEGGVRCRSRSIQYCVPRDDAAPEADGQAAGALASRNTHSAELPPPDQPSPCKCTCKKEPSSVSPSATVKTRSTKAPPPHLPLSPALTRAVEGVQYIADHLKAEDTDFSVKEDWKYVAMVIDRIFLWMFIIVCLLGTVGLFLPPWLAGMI
T1 sequence (P17787 26-502): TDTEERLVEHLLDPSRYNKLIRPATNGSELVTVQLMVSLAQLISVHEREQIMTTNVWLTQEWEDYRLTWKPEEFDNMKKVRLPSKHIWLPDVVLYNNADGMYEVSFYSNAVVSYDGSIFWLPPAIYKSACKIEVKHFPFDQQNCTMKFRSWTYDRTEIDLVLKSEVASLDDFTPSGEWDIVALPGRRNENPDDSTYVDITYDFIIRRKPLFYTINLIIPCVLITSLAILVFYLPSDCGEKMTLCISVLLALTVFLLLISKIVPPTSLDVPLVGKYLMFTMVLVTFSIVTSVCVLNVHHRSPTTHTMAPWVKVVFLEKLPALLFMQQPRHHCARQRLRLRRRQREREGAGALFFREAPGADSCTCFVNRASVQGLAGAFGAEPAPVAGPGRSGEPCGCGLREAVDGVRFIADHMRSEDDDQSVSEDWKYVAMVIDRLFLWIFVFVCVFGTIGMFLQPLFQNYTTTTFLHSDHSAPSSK
Method: (§1) B. Protocols for the Determination of Functional Effects of Nicotinic Acetylcholine Receptor Ligands on Synaptic Transmission
Cells of the IMR-32 human neuroblastoma clonal cell line (ATCC, Rockville, Md.) were maintained in a log phase of growth according to established procedures (Lukas, R. J., J. Pharmacol. Exp. Ther., 265: 294-302, 1993). Experimental cells were seeded at a density of 500,000 cells/mL into a 24-well tissue culture dish. Plated cells were allowed to proliferate for at least 48 hours before loading with 2 μCi/mL of ^86 Rb^+ (35 Ci/mmol) overnigh at 37° C. The ^86 Rb^+ efflux assays were performed according to previously published protocols (Lukas, 1993) except serum-free Dulbecco's Modified Eagle's Medium was used during the ^86 Rb^+ loading, rinsing, and agonist-induced efflux steps.
Cells of the K177 cell line, resulting from stable transfection of the human embryonic kidney (HEK) 293 cell line with the cDNA of the α4 and β2 nicotinic acetylcholine subunits (Gopalakrishnan, et al, J. Pharmacol. Expt. Ther. 1996, 276, 289-297), were maintained in a log phase of growth according to established procedures (Gopalakrishnan, et al., loc. cit.). The cells were plated onto poly-lysine coated 24-well Costar plates (Cambridge, Mass.) at a density of 250,000 cells/well. When confluent, the cells were loaded with ^86 Rb^+ and agonist-induced efflux was assessed as reported above for IMR-32 cells.
Maximal responses (reported as percent relative to the response elicited by 100 μM (S)-nicotine) are shown for selected compounds of the invention. The inhibition data (given for other selected compounds) reflect inhibition of the efflux elicited by 100 μM (S)-nicotine at the indicated concentration. […] This finding is in agreement with the results of others who have linked dopamine release, which is dependent upon the ion flux in synaptic transmission, to binding at nicotinic receptors (cf., for example, Lippiello and Caldwell, U.S. Pat. No. 5,242,935, issued Sept. 7, 1993; Caldwell and Lippielo, U.S. Pat. No. 5,248,690, issued Sept. 28, 1993; and Wonnacott et al., Prog. Brain Res; 79: 157-163 (1989)).

[3] = tested on: neuronal nicotinic acetylcholine receptors in IMR-32 cells; assay: 86Rb+ efflux assay in IMR-32 neuroblastoma cells; type: cell-based, human; conditions: Table 1; for IMR-32 % Inhibition @ 10 μM / IMR-32 % Inhibition @ (30 μM): inhibition of efflux elicited by 100 μM (S)-nicotine; for IMR-32 % max: maximal response, percent relative to 100 μM (S)-nicotine
Method: as §1
Experimental cells were seeded at a density of 500,000 cells/mL into a 24-well tissue culture dish. Plated cells were allowed to proliferate for at least 48 hours before loading with 2 μCi/mL of ^86 Rb^+ (35 Ci/mmol) overnigh at 37° C.

[4] = K177, Table 1, maximal response, percent relative to 100 μM (S)-nicotine, read-out: K177 % max
[5] = K177, Table 1, inhibition of efflux elicited by 100 μM (S)-nicotine, 10 μM, read-out: K177 % Inhibition @ 10 μM

Cl.Clc1cc2oc(C34CCCN3CCC4)cc2nc1Cl [Example 38, 2-(Hexahydro-1H-7a-pyrrolizinyl)-5,6-dichlorofuro[3,2-b]pyridine hydrochloride]
Ki [1]: 0.33 nM
Emax [2, 4]: 0%
IMR-32 % Inhibition @ 10 μM [3]: 10%
IMR-32 % max [3]: 12%

Brc1ccc2oc([C@@H]3CCCN3)cc2n1.Cl [Example 28, 5-bromo-2-(2-(S)-parrolidinvy)-furo[3,2-b]pyridine hydrochloride]
Ki [1]: 4.8 nM
K177 % max ([2]; Table 1, maximal response, percent relative to 100 μM (S)-nicotine): 20%

Brc1ccc2oc([C@H]3CCCN3)cc2n1 [Example 33, 5-bromo-2-(2-(R)-pyrrolidinyl)-furo[3,2-b]pyridine hydrochloride]
Emax [2, 4]: 0%
IMR-32 % Inhibition @ 10 μM [3]: 8%
IMR-32 % max [3]: 0%

c1cnc2cc(C34CCCN3CCC4)sc2c1 [Example 24, 2-(Hexahydro-1H-7a-pyrrolizinyl)thieno[3,2-b]pyridine hydrochloride]
Ki [1]: 2 nM
inhibition at 10 µM [2, 5]: 60%
Emax [2, 4]: 14%

Cc1ccc2oc([C@H]3CCCN3)cc2n1.Cl [Example 29, 5-methyl-2-(2-(R)-pyrrolidinyl)-furo[3,2-b]pyridine hydrochloride]
Ki [1]: 6.8 nM
inhibition at 10 µM [2, 5]: 28%
Emax [2, 4]: 0%
IMR-32 % Inhibition @ 10 μM [3]: 0%

c1cnc2cc([C@H]3C[C@@H]4CC[C@H]3N4)oc2c1 (relative stereo) [Example 52, (±)-2-(7-aza-2-exo-bicyclo[2.2.1]heptyl)furo[3,2-b]pyridine dihydrochloride]
Ki [1]: 0.86 nM
Emax [2, 4]: 36%
IMR-32 % max [3]: 69%

Cl.Clc1cc2oc([C@H]3CCCN3)cc2nc1Cl [Example 39, 5,6-Dichloro-2-(2-(R)-pyrrolidinyl)furo[3,2-b]pyridine hydrochloride]
Ki [1]: 1.1 nM
Emax [2, 4]: 39%
IMR-32 % Inhibition @ 10 μM [3]: 25%
IMR-32 % max [3]: 4%

Cc1ccc2oc([C@@H]3CCCN3C)cc2n1.Cl.Cl [Example 6, 2-(1-methyl-2-(S)-pyrrolidinyl)-5-methylfuro[3,2-b]pyridine dihydrochloride]
Ki [1]: 4.7 nM
Emax [2, 4]: 68%
IMR-32 % Inhibition @ 10 μM [3]: 4%

Cl.Cl.c1cnc2cc([C@H]3CCCN3)oc2c1 [Example 3, 2-(2-(R)-pyrrolidinyl)furo[3,2-b]pyridine dihydrochloride]
Ki [1]: 4.1 nM
Emax [2, 4]: 34%
IMR-32 % max [3]: 58%

CN1CCC[C@@H]1c1cc2ncccc2o1 [Example 4, 2-(1-methyl-2-(R)-pyrrolidinyl)furo[3,2-b]pyridine dihydrochloride]
Ki [1]: 17.5 nM
Emax [2, 4]: 63%

Cl.Cl.c1cnc2cc([C@@H]3CCCN3)oc2c1 [Example 2, 2-(2-(S)-pyrrolidinyl)furo[3,2-b]pyridine dihydrochloride]
Ki [1]: 76 nM
Emax [2, 4]: 0%
IMR-32 % Inhibition @ 10 μM [3]: 24%

Clc1ccc2oc([C@H]3CCCN3)cc2n1 [Example 35, 5-chloro-2-(2-(R)-pyrrolidinyl)-furo[3,2-b]pyridine hydrochloride]
Ki [1]: 1.1 nM
Emax [2, 4]: 61%

Cc1ccc2oc(C34CCCN3CCC4)cc2n1 [Example 16, 2-(Hexahydro-1H-7a-pyrrolizinyl)-5-methylfuro[3,2-b]pyridinedihydrochloride]
Ki [1]: 5.8 nM
Emax [2, 4]: 109%
IMR-32 % Inhibition @ 10 μM [3]: 10%
IMR-32 % max [3]: 0%

CN1[C@@H]2CC[C@@H](C2)[C@H]1c1cc2ncccc2o1 [Example 42, 2-((1R,4S)-2-aza-3-(S)-bicyclo[2.2.1]heptyl)-2-methylfuro[3,2-b]pyridil dihydrochloride]
Ki [1]: 4.7 nM
Emax [2, 4]: 29%
IMR-32 % max [3]: 24%

CN1CCC[C@H]1c1cc2ncc(Cl)cc2o1 [Example 8, 6-chloro-2-(1-methyl-2-(S)-pyrrolidinyl)-furo[3,2-b]pyridinedihydrochloride]
Ki [1]: 27 nM
inhibition at 10 µM ([2]; K177, read-out: K177 % Inhibition @ 10 μM): 45%
Emax ([2]; K177, read-out: K177 % max): 3%
IMR-32 % Inhibition @ 10 μM [3]: 9%
IMR-32 % max [3]: 0%

CN1CCC[C@H]1c1cc2ncccc2o1.Cl.Cl [Example 1, 2-(1-methyl-2-(S)-pyrrolidinyl)furo[3,2-b]pyridine dihydrochloride]
Ki [1]: 2.7 nM
Emax [2, 4]: 79%
IMR-32 % Inhibition @ (30 μM) [3]: 16%
IMR-32 % max [3]: 7%

CN1CCC[C@H]1c1cc2nc(Cl)c(Br)cc2o1.Cl.Cl [Example 48, 6-bromo-5-chloro-2-(1-methyl-2-(S)-pyrrolidinyl)furo[3,2-b]pyridine dihydrochloride]
Ki [1]: 1.3 nM
Emax [2, 4]: 0%
IMR-32 % Inhibition @ 10 μM [3]: 0%
IMR-32 % max [3]: 6%

c1cnc2cc([C@@H]3CC[C@@H]4CCCN43)oc2c1 [Example 21, endo-2-(Hexahydro-1H-3-(S)-pyrrolizinyl)furo[3,2-b]pyridine dihydrochloride]
Ki [1]: 3300 nM
IMR-32 % Inhibition @ (30 μM) [3]: 50%
IMR-32 % max [3]: 0%

Cl.c1cnc2cc(C34CCCN3CCC4)oc2c1 [Example 15, 2-(Hexahydro-1H-7a-pyrrolizinyl)furo[3,2-b]pyridine hydrochloride]
Ki [1]: 0.45 nM
binding to the nicotinic acetylcholine receptor (in words) [1]: most potent binders
Emax [2, 4]: 9%
IMR-32 % max [3]: 43%

Clc1cnc2cc([C@H]3CCCN3)oc2c1 [Example 31, 6-chloro-2-(2-(R)-pyrrolidinyl)-furo[3,2-b]pyridine hydrochloride]
Ki [1]: 9.8 nM
inhibition at 10 µM [2, 5]: 41%
Emax [2, 4]: 13%

CN1CCC[C@H]1c1cc2nc(Cl)ccc2o1 [Example 12, 5-chloro-2-(1-methyl-2-(S)-pyrrolidinyl)-furo[3,2-b]pyridinehydrochloride]
Ki [1]: 4.1 nM
Emax [2, 4]: 41%
IMR-32 % max [3]: 11%

CN1CCC[C@H]1c1cc2nc(Cl)c(Cl)cc2o1.Cl [Example 26, 5,6-Dichloro-2-(1-methyl-2-(S)-pyrrolidinyl)furo[3,2-b]pyridine hydrochloride]
Ki [1]: 0.66 nM
binding to the nicotinic acetylcholine receptor (in words) [1]: most potent binders
inhibition at 10 µM [2, 5]: 53%
Emax [2, 4]: 6%
IMR-32 % Inhibition @ 10 μM [3]: 38%
IMR-32 % max [3]: 7%
